The values below come from patent publication US5387709A, “Substituted sulfonamides, process of preparation and medicines containing same” (Lipha Lyonnaise Industrielle Pharmaceutique, priority 1990, dated 1995).

In assay [1] the test system is platelets of guinea-pig. As to the kind of experiment: Inhibition of the platelet aggregation induced by U46619 (BORN test), guinea-pig platelets. Type of assay: cell-based. The following applies: read-out: PLATELET AGGREGATION GUINEA-PIG IC 50. The source says:
(A) Inhibition of the platelet aggregation induced by U46619, a stable analogue of TXA2 (9,11-dideoxy-11α,9α-epoxymethanoprostaglandine F2 α):
The tests determine a concentration of compound which inhibits at 50% (CI50) a liminar aggregation induced by U46619. The activities of the compounds of the present invention are given in example 108.
(§1) The products of examples 1 to 107 have been tested for platelet aggregation on guinea-pig and on the contraction of the aorta in rat as described previously.

Assay [2] has as its system rat aorta. Nature of the assay: Inhibition of the U46619 induced rat aorta vasoconstriction. Type of assay: cell-based. The following applies: Rattus norvegicus, contraction by U46619 (142 nM), rat thoracic aorta, 37° C.; read-out: VASOCONSTRICTION RAT AORTA IC 50. The protocol:
(B) Inhibition of the U46619 induced rat aorta vasoconstriction:
male rats weighing about 300 g are put to death by euthanasia; the thoracic aorta is rapidly taken out. A sample of about 1 cm is cut into a spiral, and placed in a vat containing 20 ml of nutrient medium (Krebs-Henseleit) kept a 37° C. and oxygenated (O2 95%, CO2 5%). The contractions are recorded with an isotonic strain gauge. After a rest of 45 mn, supramaximum contractions are provoked by the addition of an analogue of TXA2 (U46619: 142 nM) to the survival medium. A plateau is generally reached after 10 mn of contact, the latter not exceeding 25 mn. A rest of 30 mn and a plurality of rinses take place after each contraction. The products are added 10 mn after U46619 and allowed to rest 15 mn, after which delay the inhibition is measured. The inhibitory concentration 50 (IC) is determined for each compound studied and on a minimum of 3 aortas. The activities of the compounds of the present invention are described in example 108.
as §1

Read-outs that look alike come from different tables or passages of the source.

For the compound `O=C(O)Cc1ccc(C[C@@H]2CCC[C@H]2NS(=O)(=O)c2ccc(Cl)cc2)cc1` (relative stereo) [Example 1, Trans-4-[[2-[[(4-chlorophenyl)sulfonyl]amino]cyclopentyl]methyl]-benzeneacetic acid], in assay [1] (Cavia porcellus, Platelet), the IC50 is 690 nM. Turning to `O=C(O)Cc1ccc(C[C@@H]2CCC[C@H]2NS(=O)(=O)c2ccc(Cl)cc2)cc1` (relative stereo) [Example 2, Sodium trans-4-[[2-[[(4-chlorophenyl)sulfonyl]amino]-cyclopentyl]methyl]benzene-acetate], the IC50 in assay [1] came to 720 nM; in assay [2], 70 nM. In the case of `O=C(O)Cc1ccc(C[C@@H]2CCC[C@@H]2NS(=O)(=O)c2ccc(Cl)cc2)cc1` (relative stereo) [Example 3, Cis-4-[[2-[[(4-chlorophenyl)sulfonyl]amino]cyclopentyl]methyl]benzeneaceticacid], the IC50 stood at 600 nM in assay [1] (Cavia porcellus, Platelet) and 60 nM in assay [2]. For `O=C(O)Cc1ccc(C[C@@H]2CCC[C@H]2NS(=O)(=O)c2ccc(F)cc2)cc1` (relative stereo) [Example 4, Trans-4-[[2-[[(4-fluorophenyl)sulfonyl]amino]cyclopentyl]methyl]benzeneacetic acid], in that order: 23000 nM and 200 nM.

As for `O=C(O)Cc1ccc(C[C@@H]2CCC[C@H]2NS(=O)(=O)c2ccccc2)cc1` (relative stereo) [Example 6, Trans-4-[[2-[[(phenyl)sulfonyl]amino]cyclopentyl]methyl]benzeneacetic acid], the IC50 is 6300 nM in assay [1] (Cavia porcellus, Platelet) and 560 nM in assay [2]. On the same counts, the results for `Cc1ccc(S(=O)(=O)N[C@@H]2CCC[C@H]2Cc2ccc(CC(=O)O)cc2)cc1` (relative stereo) [Example 7, Trans-4-[[2-[[(4-methylphenyl)sulfonyl]amino]cyclopentyl]methyl]-benzeneacetic acid] are 3300 nM and 300 nM. Consider `O=C(O)Cc1ccc([C@@H]2CCCC[C@H]2NS(=O)(=O)c2ccc(Cl)cc2)cc1` (relative stereo) [Example 10, Trans-4-[2-[[(4-chlorophenyl)sulfonyl]amino]cyclohexyl]benzeneacetic acid], for which the IC50 is 1300 nM in assay [1] (Cavia porcellus, Platelet) and 5000 nM in assay [2].

In the case of `O=C(O)Cc1ccc(C[C@@H]2CCCC[C@H]2NS(=O)(=O)c2ccc(Cl)cc2)cc1` (relative stereo) [Example 11, Trans-4-[[2-[[(4-chlorophenyl)sulfonyl]amino]cyclohexyl]methyl]benzeneacetic acid], the IC50 in assay [1] (Cavia porcellus, Platelet) was found to be 390 nM; in assay [2], 50 nM. On the same counts, the results for `O=C(O)Cc1ccc(OC2CCCC2NS(=O)(=O)c2ccc(Cl)cc2)cc1` (centres unmarked) [Example 9, 4-[2-[[(4-chlorophenyl)sulfonyl]amino]cyclopentyloxy]benzeneacetic acid] are greater than 20000 nM and 1000 nM. On the same counts, the results for `O=C(O)Cc1ccc(C2(CNS(=O)(=O)c3ccc(Cl)cc3)CC2)cc1` [Example 12, 4-[1-[[[(4-Chlorophenyl)sulfonyl]amino]methyl]cyclopropyl]benzeneacetic acid] are 1800 nM and 70 nM. For `O=C(O)Cc1ccc(C2(CNS(=O)(=O)c3ccc(Cl)cc3)CCC2)cc1` [Example 13, 4-[1[[[(4-Chlorophenyl)sulfonyl]amino]methyl]cyclobutyl]benzeneacetic acid], in that order: 680 nM and 60 nM. Regarding `O=C(O)Cc1ccc(C2(CNS(=O)(=O)c3ccc(Cl)cc3)CCCC2)cc1` [Example 14, 4-[1-[[[(4-Chlorophenyl)sulfonyl]amino]methyl]cyclopentyl]benzeneacetic acid], the IC50 in assay [1] (Cavia porcellus, Platelet) is 5500 nM; in assay [2], 70 nM. Regarding `O=C(O)Cc1ccc(CC2(CNS(=O)(=O)c3ccccc3)CCCC2)cc1` [Example 15, 4-[[1-[[[(Phenyl)sulfonyl]amino]methyl]cyclopentyl]methyl]benzeneacetic acid], the IC50 in assay [1] (Cavia porcellus, Platelet) is 1100 nM; in assay [2] it was 300 nM. On the same counts, the results for `O=C(O)Cc1ccc(CC2(CNS(=O)(=O)c3ccc(F)cc3)CCCC2)cc1` [Example 16, 4-[[1-[[[(4-Fluorophenyl)sulfonyl]amino]methyl]cyclopentyl]methyl]benzeneacetic acid] are 2400 nM and 200 nM.

For `CC(=O)c1ccc(CC2(CNS(=O)(=O)c3ccc(Cl)cc3)CCCC2)cc1` [Example 17, N-[[1-[(4-Acetylphenyl)methyl]cyclopentyl]methyl]-4-chlorobenzenesulfonamide], the IC50 in assay [1] (Cavia porcellus, Platelet) is greater than 20000 nM; in assay [2], greater than 1000 nM. For `COC(=O)Cc1ccc(CC2(CNS(=O)(=O)c3ccc(Cl)cc3)CCCC2)cc1` [Example 18, Methyl 4-[[1-[[[(4-chlorophenyl)sulfonyl]amino]methyl]cyclopentyl]methyl]benzeneacetate], in that order: 660 nM and greater than 1000 nM.

Regarding `O=C(O)Cc1ccc(CC2(CNS(=O)(=O)c3ccc(Cl)cc3)CCCC2)cc1` [Example 19, 4-[[1-[[[(4-Chlorophenyl)sulfonyl]amino]methyl]cyclopentyl]methyl]benzeneacetic acid], the IC50 in assay [1] (Cavia porcellus, Platelet) came to 260 nM; in assay [2], 100 nM. On the same counts, the results for `Cc1ccc(S(=O)(=O)NCC2(Cc3ccc(CC(=O)O)cc3)CCCC2)cc1` [Example 24, 4-[[1-[[[(4-methylphenyl)sulfonyl]amino]methyl]cyclopentyl]methyl]benzeneacetic acid] are 570 nM and 300 nM. For `O=C(O)c1ccc(CC2(CNS(=O)(=O)c3ccc(Cl)cc3)CCCC2)cc1` [Example 25, 4-[[1-[[[(4-Chlorophenyl)sulfonyl]amino]methyl]cyclopentyl]methyl]benzoic acid], in that order: 1500 nM and 60 nM. For `O=C(O)Cc1ccc(CC2(CNS(=O)(=O)c3ccc(Cl)c(Cl)c3)CCCC2)cc1` [Example 26, 4-[[1-[[[(3,4-Dichlorophenyl)sulfonyl]amino]methyl]cyclopentyl]methyl]benzeneacetic acid], in that order: 3100 nM and 460 nM. Take `O=C(O)Cc1ccc(CC2(CNS(=O)(=O)c3ccc(Cl)cc3)CCC2)cc1` [Example 27, 4-[[1-[[[(4-chlorophenyl)sulfonyl]amino]methyl]cyclobutyl]methyl]benzeneacetic acid]: the IC50 in assay [1] (Cavia porcellus, Platelet) stood at 290 nM; in assay [2] it was 20 nM. With `O=S(=O)(NCC1(Cc2ccc(CCO)cc2)CCCC1)c1ccc(Cl)cc1` [Example 28, 4-Chloro-N-[[1-[[4-(2-hydroxyethyl)phenyl]methyl]cyclopentyl]methyl]benzenesulfonamide], the IC50 in assay [1] (Cavia porcellus, Platelet) is 2600 nM; in assay [2], greater than 1000 nM. For `O=C(O)Cc1ccc(C2(CNS(=O)(=O)c3ccc(Cl)cc3)CCCCC2)cc1` [Example 29, 4-[1-[[[(4-Chlorophenyl)sulfonyl]amino]methyl]cyclohexyl]benzeneacetic acid], in that order: 5300 nM and 1000 nM.

For `O=C(O)CCC(=O)c1ccc(CC2(CNS(=O)(=O)c3ccc(Cl)cc3)CCCC2)cc1` [Example 30, 4-[4-[[1-[[[(4-Chlorophenyl)sulfonyl]amino]methyl]cyclopentyl]methyl]phenyl]-4-oxobutanoic acid], the IC50 in assay [1] (Cavia porcellus, Platelet) worked out at 920 nM; in assay [2], 1000 nM.

Take `O=C1CCC(c2ccc(CC3(CNS(=O)(=O)c4ccc(Cl)cc4)CCCC3)cc2)=NN1` [Example 31, 4-Chloro-N-[[1-[[4-(4,5-dihydro-3-oxo-2H-pyridazin-6-yl)phenyl]methyl]cyclopentyl]methyl]-benzenesulfonamide]: the IC50 was 2500 nM in assay [1] (Cavia porcellus, Platelet) and no less than 1000 nM in assay [2]. On to `CS(=O)(=O)c1ccc(S(=O)(=O)NCC2(Cc3ccc(CCO)cc3)CCCC2)cc1` [Example 44, N-[[1-[[4-(2-Hydroxyethyl)phenyl]methyl]cyclopentyl]methyl]-4-methylsulfonylbenzenesulfonamide], for which, in assay [1] (Cavia porcellus, Platelet), the IC50 was greater than 5000 nM. Same read-out and setting: the result for `O=S(=O)(NCC1(Cc2ccc(CCO)cc2)CCCC1)c1ccc(OC(F)(F)F)cc1` [Example 45, N-[[1-[[4-(2-Hydroxyethyl)phenyl]methyl]cyclopentyl]methyl]-4-trifluoromethoxybenzenesulfonamide] reads greater than 5000 nM. The same measure, in the same setting: the same measure for `O=C(O)Cc1ccc(CC2(CNS(=O)(=O)c3ccc4ccccc4c3)CCCC2)cc1` [Example 102, 4-[[1-[[[(Naphthalen-2-yl)sulfonyl]amino]methyl]cyclopentyl]methyl]benzeneacetic acid]: 1000 nM.

Take `O=C(O)Cc1ccc(CC2(CNS(=O)(=O)c3cccc4cccnc34)CCCC2)cc1` [Example 106, 4-[[1-[[[(Quinol-8-yl)sulfonyl]amino]methyl]cyclopentyl]methyl]benzeneacetic acid]: in assay [1] (Cavia porcellus, Platelet), the IC50 was greater than 5000 nM.
